# “Also recorded” adds a separate entry of the source.
# Legend:
# [1] = system: TyrRAS+Ink4a/Arf−/− melanoma; assay: Tumor-bearing mice given 7.5 Gy TBI: tumor growth and mortality; format: in vivo
# Procedure: Tumor growth with (open squares) or without (closed diamonds) a single dose of 6-acetyl-8-cyclopentyl-5-methyl-2-(5-piperazin-1-yl-pyridin-2-ylamino)-8H-pyrido-[2,3-d]-pyrimidin-7-one (PD0332991) administered 4 hours prior to 7.5 gray (Gy) total body irradiation (TBI). […] Error bars indicate standard error of the mean.
# FIG. 2E is a set of Kaplan-Meyer survival curves showing overall mortality, tumor-specific mortality and mortality to radiation toxicity of tumor bearing mice treated with 7.5 gray (Gy) of total body irradiation (TBI) with (solid line, n=8) or without (dashed line n=11) 6-acetyl-8-cyclopentyl-5-methyl-2-(5-piperazin-1-yl-pyridin-2-ylamino)-8H-pyrido-[2,3-d]-pyrimidin-7-one (PD 0332991) treatment 4 hours prior to ionizing radiation (IR). P-values calculated using the log-rank test.
# Young adult (6-12 weeks of age), virgin female C57B1/6 mice were purchased from Jackson Labs (Bar Harbor, Me., United States of America). […] Experiments on tumor-bearing TyrRAS+Ink4a/Arf−/− mice (see Chin et al., Genes & development, 11, 2822-2834 (1997)) were performed in animals fully backcrossed (N>10) to the FVB/n background. Mice were treated as previously described (see Ramsey et al., Cancer Res., 67, 4732-4741 (2007)) with PD 0332991 obtained from Pfizer Inc., (New York, N.Y., United States of America) given by oral gavage at a dose of 150 mg/kg body weight. TyrRAS+Ink4a/Arf−/− mice were serially observed until tumor development. When tumors were about 0.2 cm^2 in size, daily PD 0332991 treatment was begun. […] Tumor-bearing mice were euthanized at the indicated times for morbidity, tumor ulceration, or tumor size >1.5 cm in diameter.
# For TBI experiments, mice were irradiated using a ^137Cs source (AECL Gammacell 40 Irradiator, Atomic Energy of Canada Ltd, Mississauga, Ontario, Canada). Delivered doses were at or near the empirically determined LD90 of 7.5 Gy, consistent with prior studies.
# [2] = system: RB-null melanoma cell line A2058; assay: Clonogenic assay after IR, A2058; format: cell-based, human; details: 100 nM, IR 0-9 Gy
# Procedure: Data plotted is the area/cell ratio of PD0332991 treated cells to dimethyl sulfoxide (DMSO) treated cells. Error bars show standard error of the mean.
# Clonogenic Assay: The clonogenic assay was performed as previously described (see Franken et al., Nature protocols, 1, 2315-1319 (2006)) with cells plated in a six-well plate at least 6 hours prior to treatment with CDK inhibitor for 24 hours, […] Cells were grown for 16 days, washed, fixed, and stained with crystal violet. Plates were then imaged using an Odyssey infrared scanner (Li-Cor Biosciences, Lincoln, Nebr., United States of America) and quantified using the accompanying software.
# [3] = system: bone marrow cells; assay: Bone marrow cellularity, immunophenotypic frequency, apoptosis and viability; format: in vivo, mice; details: 48 hour treatment
# Procedure: For HSPC proliferation experiments, mice received daily oral gavage with PD0332991 for 2 days with 1 mg BrdU intraperitoneal injection every 6 hours for 24 hours prior to sacrifice. BM-MNC harvest and immunophenotyping was performed using RBC lysis, biotin-conjugated Lin-panel incubation (Invitrogen Corporation, Carlsbad, Calif., United States of America), paramagnetic bead-conjugated straptavidin (Miltinyi Biotec, Bergisch Gladbach, Germany) incubation, and magnetic depletion using an AutoMACS (Miltinyi Biotec, Bergisch Gladbach, Germany). At least 2×10^6 Lin-depleted cells per mouse were incubated with fluorescently labeled antibodies against cell surface antigens used to identify hematopoietic progenitor subpopulations as previously described (see Passegue et al., J. Exp. Med., 202, 1599-1611 (2005); and Kiel et al., Cell, 121, 1109-1121 (2005): CD34-FITC, CD16/32-PacificBlue, IL7Ra-PE-Cy5, and cKit-APC-Alexa750 from eBiosciences, Inc. (San Diego, Calif., United States of America); Sca1-PE-Cy7, CD150-PE-Cy5, and CD48-PacificBlue from BioLegend (San Diego, Calif., United States of America); and Aqua Live/Dead viability dye (Invitrogen Corporation, Carlsbad, Calif., United States of America). Streptavidin-PE-TexasRed (Invitrogen Corporation, Carlsbad, Calif., United States of America) was used to confirm efficiency of lineage-depletion. After cell surface staining, cells were fixed, permeabilized, and stained with antibodies against Ki67-FITC, BrdU-APC, and caspase3-PE (BD Biosciences Pharmingen, San Diego, Calif., United States of America).
# In all experiments, gating based on isotype controls was used as appropriate. Flow cytometry was performed using a CyAn ADP (Dako, Glostrup, Denmark) and analyzed with FlowJo software (Tree Star, Ashland, Oreg., United States of Ameria). For each bone marrow sample, a minimum of 200,000 cells were analyzed. For cell culture samples, a minimum of 20,000 cells were analyzed.
# The effects on immunophenotypic HSPC frequency were validated by other methods.
# [4] = system: bone marrow mononuclear cells (BM-MNCs); assay: Cobblestone area-forming cell (CAFC) assay; format: cell-based, mice; details: daily oral gavage for 2 days prior to bone marrow harvest
# Procedure: CAFCs are per 1×10^5 bone marrow mononuclear cells (BM-MNCs). Error bars are +/− the standard error of the mean of pooled samples measured in duplicate.
# Cobblestone Area-forming Cell (CAFC) Assay: The CAFC assay was performed as described previously. See Meng et al., Cancer Res., 63, 5414-5419 (2003). Briefly, bone marrow was harvested from femurs and tibias of mice and centrifuged to purify BM-MNCs. The frequencies of CAFC were determined at weekly intervals (on day 7, 14, and 35). Wells were scored positive if at least one phase-dark hematopoietic clone (containing 5 or more cells) was seen. The frequency of CAFC was then calculated by using Poisson statistics as described.
# [5] = treatment 4 hours prior to 7.5 Gy TBI
structure (smiles),measurement,setting,value
"CC(=O)c1c(C)c2cnc(Nc3ccc(N4CCNCC4)cn3)nc2n(C2CCCC2)c1=O [PD0332991, 6-acetyl-8-cyclopentyl-5-methyl-2-(5-piperazin-1-yl-pyridin-2-ylamino)-8H-pyrido-[2,3-d]-pyrimidin-7-one]",anti-tumor effect of therapeutic IR,[1]; single dose 4 hours prior to 7.5 Gy TBI,does not decrease that anti-tumor effect of therapeutic radiotherapy
same,mortality to radiation toxicity,[1]; [5],does appear to provide protection from radiation toxicity
same,tumor-related mortality,[1]; [5],does not appear to increase tumor-related mortality
same,clonogenic cell survival after IR (area/cell ratio relative to DMSO),[2],not in CDK4/6-independent cells
same,HSC and MPP frequencies,[3],relative increase; also recorded: relative enrichment
same,Lin− or HSC apoptosis or viability,[3],without altering
same,absolute number of lineage negative cells,[3],did decrease
same,frequency of oligopotent progenitors (Lin−cKit+Sca1−),[3],declined
same,total marrow cellularity,[3],did not decrease
same,in vivo HSPC number (CAFC),[4],did not decrease in vivo HSPC number

# Source: patent US20110224221A1, “HEMATOPOIETIC PROTECTION AGAINST IONIZING RADIATION USING SELECTIVE CYCLIN-DEPENDENT KINASE 4/6 INHIBITORS” (priority 2008, published 2011)
